The record followed here is PMC6789782, “Safety Pharmacological Evaluation of the Coffee Component, Caffeoylquinic Acid, and Its Metabolites, Using Ex Vivo and In Vitro Profiling Assays” (Pharmaceuticals, 2019).

Holding throughout (assay): In vitro profiling, binding assay
The target of one assay is Dopamine D1 (Homo sapiens, UniProt P21728). The method, then:
(§1) Binding and functional assays of CGAs with the proteins known to be pharmacological targets related to the CVS, CNS, and GI functions were conducted. […] In the binding assay, we measured the radiation activity of the solution containing filtered proteins that bound to the tested compound or high-affinity ligand, while in the functional assays, we measured the reaction product. The ability of the test compound to interact with the tested targets was measured as the inhibition of ligand binding to the target or reaction product production (% inhibition).

For a further assay, the target named is Adrenergic β1 (Homo sapiens, UniProt P08588). The method, then:
as §1

In the next assay the target is T1, Adrenergic α1A (Rattus norvegicus, UniProt P43140).
T1 sequence (P43140 1-466): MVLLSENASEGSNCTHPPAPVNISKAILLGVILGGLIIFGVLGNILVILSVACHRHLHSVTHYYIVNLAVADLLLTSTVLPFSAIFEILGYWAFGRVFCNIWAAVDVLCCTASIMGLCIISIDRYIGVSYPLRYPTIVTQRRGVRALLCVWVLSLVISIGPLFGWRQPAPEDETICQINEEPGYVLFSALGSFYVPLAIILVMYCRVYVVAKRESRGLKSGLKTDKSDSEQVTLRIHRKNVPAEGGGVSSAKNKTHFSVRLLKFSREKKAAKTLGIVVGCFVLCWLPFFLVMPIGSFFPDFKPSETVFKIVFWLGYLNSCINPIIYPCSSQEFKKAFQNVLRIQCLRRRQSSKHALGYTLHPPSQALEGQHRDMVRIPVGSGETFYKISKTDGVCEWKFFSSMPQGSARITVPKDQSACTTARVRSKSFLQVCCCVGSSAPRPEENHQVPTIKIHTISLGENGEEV
As to the method:
as §1

The target in a further assay is 5-HT2B (Homo sapiens, UniProt P41595). As to the method: as §1
A further assay concerns the target Opiate μ (Homo sapiens, UniProt P35372). As to the method: as §1
For the next assay, the target named is 5-HT1B (Homo sapiens, UniProt P28222). As to the method:
as §1

The target in a further assay is Dopamine D2L (Homo sapiens, UniProt P14416). The method, then:
as §1

Another assay addresses T2, Endothelin ETA (Homo sapiens, UniProt P25101).
T2 sequence (P25101 21-427): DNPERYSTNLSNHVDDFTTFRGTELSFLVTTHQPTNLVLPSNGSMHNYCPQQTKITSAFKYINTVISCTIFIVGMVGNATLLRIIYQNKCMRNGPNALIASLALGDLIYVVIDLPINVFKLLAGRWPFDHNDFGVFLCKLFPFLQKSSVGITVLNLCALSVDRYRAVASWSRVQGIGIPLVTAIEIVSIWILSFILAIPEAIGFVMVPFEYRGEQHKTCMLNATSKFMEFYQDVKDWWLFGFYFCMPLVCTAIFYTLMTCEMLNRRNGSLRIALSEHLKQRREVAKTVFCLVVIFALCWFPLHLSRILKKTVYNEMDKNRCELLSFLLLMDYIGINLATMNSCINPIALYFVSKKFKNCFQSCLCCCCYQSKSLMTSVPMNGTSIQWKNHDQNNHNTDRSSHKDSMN
As to the method:
as §1

A further assay deals with T3, 5-HT3 (Homo sapiens, UniProt P46098).
T3 sequence (P46098 24-478): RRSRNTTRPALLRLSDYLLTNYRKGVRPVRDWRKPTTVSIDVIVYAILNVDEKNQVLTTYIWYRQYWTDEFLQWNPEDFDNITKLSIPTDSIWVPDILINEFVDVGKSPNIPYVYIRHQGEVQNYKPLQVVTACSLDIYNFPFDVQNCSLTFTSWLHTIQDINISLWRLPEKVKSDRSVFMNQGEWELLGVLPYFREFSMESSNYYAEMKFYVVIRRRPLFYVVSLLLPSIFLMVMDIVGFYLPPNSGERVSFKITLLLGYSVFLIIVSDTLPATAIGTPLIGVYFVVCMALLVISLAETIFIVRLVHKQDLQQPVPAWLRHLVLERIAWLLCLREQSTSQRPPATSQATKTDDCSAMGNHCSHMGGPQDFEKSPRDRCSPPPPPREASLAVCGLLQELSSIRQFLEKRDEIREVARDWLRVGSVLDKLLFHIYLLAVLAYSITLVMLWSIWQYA
As to the method:
as §1

The target of the next assay is Opiate κ (Homo sapiens, UniProt P41145). As to the method:
as §1

For another assay, the target named is Opiate δ1 (Homo sapiens, UniProt P41143). As to the method: as §1
Opiate δ1, sequence (P41143 whole entry): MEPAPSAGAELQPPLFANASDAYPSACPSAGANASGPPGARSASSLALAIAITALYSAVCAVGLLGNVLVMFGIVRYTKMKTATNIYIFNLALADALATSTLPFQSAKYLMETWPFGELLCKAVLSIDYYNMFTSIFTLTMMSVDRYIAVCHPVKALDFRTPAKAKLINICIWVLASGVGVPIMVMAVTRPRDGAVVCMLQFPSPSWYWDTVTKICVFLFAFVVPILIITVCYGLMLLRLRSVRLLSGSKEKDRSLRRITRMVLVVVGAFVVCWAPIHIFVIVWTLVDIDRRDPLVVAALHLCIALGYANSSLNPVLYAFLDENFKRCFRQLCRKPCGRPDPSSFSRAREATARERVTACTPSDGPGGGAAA
The target in assay [1] is T4, Cholecystokinin CCK1 (CCKA) (Homo sapiens, UniProt P32238).
T4 sequence (P32238 1-428): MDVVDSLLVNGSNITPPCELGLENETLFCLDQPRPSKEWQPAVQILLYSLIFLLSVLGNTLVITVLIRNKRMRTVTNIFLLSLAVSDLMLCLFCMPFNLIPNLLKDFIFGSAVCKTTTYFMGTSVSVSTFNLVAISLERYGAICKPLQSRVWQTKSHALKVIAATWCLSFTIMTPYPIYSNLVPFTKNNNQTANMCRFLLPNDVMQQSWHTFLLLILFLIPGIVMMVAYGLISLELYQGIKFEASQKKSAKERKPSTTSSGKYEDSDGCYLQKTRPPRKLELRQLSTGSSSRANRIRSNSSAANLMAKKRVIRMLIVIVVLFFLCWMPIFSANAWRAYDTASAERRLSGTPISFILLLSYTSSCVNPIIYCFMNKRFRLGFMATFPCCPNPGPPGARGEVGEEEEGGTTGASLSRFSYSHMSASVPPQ
The method, then: as §1

The next assay addresses Adrenergic β2 (Homo sapiens, UniProt P07550). The method, then:
as §1

Another assay addresses Cannabinoid CB1 (Homo sapiens, UniProt P21554). As to the method: as §1
The next assay deals with Muscarinic M3 (Homo sapiens, UniProt P20309). The method, then:
as §1

In a further assay the target is Histamine H1 (Homo sapiens, UniProt P35367). As to the method:
as §1

Setting [2] is: 30 µM, Dopamine D1, read-out: % Inhibition.
The mark [3] stands for this setting: 30 µM, Adrenergic β1, read-out: % Inhibition.
The mark [4] stands for this setting: 30 µM, Adrenergic α1A, read-out: % Inhibition.
Setting [5] is: 30 µM, 5-HT2B, read-out: % Inhibition.
Setting [6] is: 30 µM, Opiate μ, read-out: % Inhibition.
[7] abbreviates: 30 µM, 5-HT1B, read-out: % Inhibition.
Where [8] appears, read: 30 µM, Dopamine D2L, read-out: % Inhibition.
[9] abbreviates: 30 µM, Endothelin ETA, read-out: % Inhibition.
Setting [10] is: 30 µM, 5-HT3, read-out: % Inhibition.
Setting [11] is: 30 µM, Opiate κ, read-out: % Inhibition.
Setting [12] is: 30 µM, Opiate δ1, read-out: % Inhibition.
Where [13] appears, read: 30 µM, Cholecystokinin CCK1 (CCKA), read-out: % Inhibition.
The mark [14] stands for this setting: 30 µM, Adrenergic β2, read-out: % Inhibition.
Where [15] appears, read: 30 µM, Cannabinoid CB1, read-out: % Inhibition.

For orientation: inhibition means the relative decrease from the control value, in per cent. The % Inhibition is the relative decrease from the control value, in per cent.

Like-named read-outs stand apart in the source and are kept apart here.

Adrenergic β1, sequence (P08588 whole entry): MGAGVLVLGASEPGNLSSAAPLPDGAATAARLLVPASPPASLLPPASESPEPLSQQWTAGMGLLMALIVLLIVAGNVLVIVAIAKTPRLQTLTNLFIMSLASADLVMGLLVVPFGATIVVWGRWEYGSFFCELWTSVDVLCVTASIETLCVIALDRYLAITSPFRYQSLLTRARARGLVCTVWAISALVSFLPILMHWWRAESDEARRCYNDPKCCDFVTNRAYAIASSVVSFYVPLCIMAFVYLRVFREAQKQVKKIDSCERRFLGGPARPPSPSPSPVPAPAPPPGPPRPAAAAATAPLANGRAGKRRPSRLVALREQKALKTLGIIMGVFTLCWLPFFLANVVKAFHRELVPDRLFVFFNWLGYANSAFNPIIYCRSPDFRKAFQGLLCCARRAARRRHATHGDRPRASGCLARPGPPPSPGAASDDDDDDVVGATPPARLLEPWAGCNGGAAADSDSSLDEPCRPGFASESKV
Dopamine D2L, sequence (P14416 whole entry): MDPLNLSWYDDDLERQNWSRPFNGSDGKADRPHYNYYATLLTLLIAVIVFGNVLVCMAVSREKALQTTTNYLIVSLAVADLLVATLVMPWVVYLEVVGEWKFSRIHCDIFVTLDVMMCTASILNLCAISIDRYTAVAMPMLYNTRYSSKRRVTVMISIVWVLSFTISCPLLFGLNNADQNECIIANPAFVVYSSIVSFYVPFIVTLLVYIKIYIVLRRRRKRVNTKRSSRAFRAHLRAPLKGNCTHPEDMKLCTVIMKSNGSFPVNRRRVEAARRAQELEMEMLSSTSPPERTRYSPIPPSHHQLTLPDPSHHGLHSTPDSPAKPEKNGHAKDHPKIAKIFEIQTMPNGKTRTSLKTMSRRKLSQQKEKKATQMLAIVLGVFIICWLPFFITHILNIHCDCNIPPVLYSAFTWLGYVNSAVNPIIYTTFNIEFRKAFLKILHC
Muscarinic M3, sequence (P20309 whole entry): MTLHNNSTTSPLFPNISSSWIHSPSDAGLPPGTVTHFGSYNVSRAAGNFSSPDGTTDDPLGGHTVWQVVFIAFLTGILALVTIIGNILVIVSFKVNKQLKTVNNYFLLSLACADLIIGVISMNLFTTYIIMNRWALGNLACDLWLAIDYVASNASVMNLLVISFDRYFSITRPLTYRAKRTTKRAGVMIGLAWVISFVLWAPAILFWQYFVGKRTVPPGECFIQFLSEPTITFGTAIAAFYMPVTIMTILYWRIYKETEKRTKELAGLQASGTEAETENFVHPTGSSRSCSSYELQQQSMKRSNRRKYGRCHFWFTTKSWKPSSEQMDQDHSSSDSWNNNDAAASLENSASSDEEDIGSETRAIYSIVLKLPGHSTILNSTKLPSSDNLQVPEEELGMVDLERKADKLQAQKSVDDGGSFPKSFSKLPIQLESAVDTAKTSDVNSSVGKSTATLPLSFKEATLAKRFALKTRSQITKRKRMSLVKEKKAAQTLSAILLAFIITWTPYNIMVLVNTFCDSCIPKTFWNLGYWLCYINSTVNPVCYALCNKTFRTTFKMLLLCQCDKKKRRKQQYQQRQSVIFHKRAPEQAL
Histamine H1, sequence (P35367 whole entry): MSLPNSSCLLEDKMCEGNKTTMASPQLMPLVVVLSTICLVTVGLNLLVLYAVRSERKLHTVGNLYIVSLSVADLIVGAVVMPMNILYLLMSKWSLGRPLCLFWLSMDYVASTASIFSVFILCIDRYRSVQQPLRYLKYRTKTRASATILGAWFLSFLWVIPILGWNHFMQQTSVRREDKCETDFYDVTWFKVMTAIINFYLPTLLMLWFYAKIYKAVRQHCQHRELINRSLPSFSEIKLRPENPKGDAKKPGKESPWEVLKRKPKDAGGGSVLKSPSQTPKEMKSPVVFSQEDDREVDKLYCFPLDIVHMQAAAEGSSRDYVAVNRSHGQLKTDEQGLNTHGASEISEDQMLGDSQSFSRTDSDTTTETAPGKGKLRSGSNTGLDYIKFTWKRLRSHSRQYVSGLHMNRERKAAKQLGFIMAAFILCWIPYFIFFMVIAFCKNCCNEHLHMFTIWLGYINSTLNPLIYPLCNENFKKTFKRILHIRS
Adrenergic β2, sequence (P07550 whole entry): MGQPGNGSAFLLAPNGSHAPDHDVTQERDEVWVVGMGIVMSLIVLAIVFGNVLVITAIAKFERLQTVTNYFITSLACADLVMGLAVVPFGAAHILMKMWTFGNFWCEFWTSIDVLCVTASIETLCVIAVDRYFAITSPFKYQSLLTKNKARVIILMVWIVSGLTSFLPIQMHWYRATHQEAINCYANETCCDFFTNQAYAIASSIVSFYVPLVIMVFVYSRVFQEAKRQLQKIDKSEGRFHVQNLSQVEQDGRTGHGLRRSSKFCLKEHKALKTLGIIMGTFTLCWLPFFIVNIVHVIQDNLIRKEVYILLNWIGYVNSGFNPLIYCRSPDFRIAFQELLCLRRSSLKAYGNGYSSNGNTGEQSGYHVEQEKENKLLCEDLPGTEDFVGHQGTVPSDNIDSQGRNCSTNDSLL
Opiate μ, sequence (P35372 whole entry): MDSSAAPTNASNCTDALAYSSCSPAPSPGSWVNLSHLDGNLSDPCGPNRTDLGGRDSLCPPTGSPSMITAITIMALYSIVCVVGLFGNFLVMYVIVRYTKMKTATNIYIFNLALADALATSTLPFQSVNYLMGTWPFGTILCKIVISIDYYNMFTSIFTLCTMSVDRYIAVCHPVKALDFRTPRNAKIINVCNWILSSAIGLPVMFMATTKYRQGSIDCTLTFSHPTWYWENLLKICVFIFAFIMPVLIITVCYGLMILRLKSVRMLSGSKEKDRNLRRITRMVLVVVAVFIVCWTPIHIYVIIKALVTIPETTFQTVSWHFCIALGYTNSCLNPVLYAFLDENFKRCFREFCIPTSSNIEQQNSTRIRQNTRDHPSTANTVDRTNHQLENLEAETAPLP
5-HT1B, sequence (P28222 whole entry): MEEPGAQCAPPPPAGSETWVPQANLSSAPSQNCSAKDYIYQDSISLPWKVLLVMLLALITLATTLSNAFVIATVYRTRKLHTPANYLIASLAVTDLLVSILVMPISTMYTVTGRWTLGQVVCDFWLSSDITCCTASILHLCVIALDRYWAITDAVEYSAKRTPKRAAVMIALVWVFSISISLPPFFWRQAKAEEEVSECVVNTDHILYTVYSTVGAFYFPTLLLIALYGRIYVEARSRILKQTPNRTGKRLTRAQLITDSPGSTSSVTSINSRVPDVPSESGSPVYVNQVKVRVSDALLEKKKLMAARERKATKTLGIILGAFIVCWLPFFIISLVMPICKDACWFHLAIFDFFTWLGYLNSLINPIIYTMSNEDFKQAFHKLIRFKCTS
Opiate κ, sequence (P41145 whole entry): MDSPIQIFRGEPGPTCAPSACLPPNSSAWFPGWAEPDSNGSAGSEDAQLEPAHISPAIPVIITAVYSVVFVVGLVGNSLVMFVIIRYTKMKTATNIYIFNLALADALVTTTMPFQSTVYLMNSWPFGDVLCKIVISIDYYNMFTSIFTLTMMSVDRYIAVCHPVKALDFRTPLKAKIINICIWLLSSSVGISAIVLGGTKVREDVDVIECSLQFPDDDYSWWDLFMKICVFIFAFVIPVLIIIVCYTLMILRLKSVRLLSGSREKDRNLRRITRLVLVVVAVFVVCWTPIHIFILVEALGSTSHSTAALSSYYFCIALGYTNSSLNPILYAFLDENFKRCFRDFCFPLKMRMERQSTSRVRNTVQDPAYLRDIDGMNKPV
Cannabinoid CB1, sequence (P21554 whole entry): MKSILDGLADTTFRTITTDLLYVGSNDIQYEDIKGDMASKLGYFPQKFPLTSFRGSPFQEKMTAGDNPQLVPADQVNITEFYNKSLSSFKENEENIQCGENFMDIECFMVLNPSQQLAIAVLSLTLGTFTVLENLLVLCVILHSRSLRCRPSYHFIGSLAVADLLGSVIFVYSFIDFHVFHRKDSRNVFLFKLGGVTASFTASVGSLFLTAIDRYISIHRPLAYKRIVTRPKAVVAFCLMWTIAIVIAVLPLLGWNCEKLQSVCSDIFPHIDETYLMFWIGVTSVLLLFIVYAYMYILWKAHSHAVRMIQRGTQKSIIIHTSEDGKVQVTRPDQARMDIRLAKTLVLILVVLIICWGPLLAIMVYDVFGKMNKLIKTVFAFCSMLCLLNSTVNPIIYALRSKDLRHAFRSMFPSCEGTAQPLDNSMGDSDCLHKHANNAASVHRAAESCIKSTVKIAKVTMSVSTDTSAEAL
Dopamine D1, sequence (P21728 whole entry): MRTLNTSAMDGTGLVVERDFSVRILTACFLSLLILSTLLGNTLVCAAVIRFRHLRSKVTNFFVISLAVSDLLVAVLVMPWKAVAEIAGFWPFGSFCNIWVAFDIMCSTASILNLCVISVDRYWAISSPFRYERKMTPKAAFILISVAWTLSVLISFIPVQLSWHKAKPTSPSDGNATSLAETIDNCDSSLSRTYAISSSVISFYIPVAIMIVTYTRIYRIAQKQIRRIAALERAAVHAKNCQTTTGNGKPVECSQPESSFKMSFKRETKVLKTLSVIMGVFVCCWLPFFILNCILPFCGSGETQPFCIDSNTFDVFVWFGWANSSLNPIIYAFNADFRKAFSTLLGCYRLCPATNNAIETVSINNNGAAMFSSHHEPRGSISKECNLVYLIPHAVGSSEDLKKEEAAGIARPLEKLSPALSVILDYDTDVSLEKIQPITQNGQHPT

Consider `COc1cc(/C=C/C(=O)O)ccc1O` [FA, ferulic acid], for which the inhibition at 30 µM at Dopamine D1 was -1%; on Adrenergic β1 it was -2%; at Adrenergic α1A it was -2%; on 5-HT2B, 5%; on Opiate μ it was 4%; on 5-HT1B, 4%. The inhibition at 30 µM on Dopamine D2L is 9%; at Endothelin ETA, 1%; at 5-HT3, -13%; on Opiate κ it was 3%; on Opiate δ1, 16%; in assay [1] it was 1%. The inhibition at 30 µM on Adrenergic β2 was 2%; at Cannabinoid CB1, -15%.

In the case of `O=C(O)/C=C/c1ccc(O)c(O)c1` [CA, caffeic acid], the “% Inhibition” value on Dopamine D1 (30 µM, Dopamine D1) is on record as 5%; on Adrenergic β1 (30 µM, Adrenergic β1), 3%; at Muscarinic M3 (30 µM), −3%; at Adrenergic α1A (30 µM, Adrenergic α1A), 10%; at 5-HT2B (30 µM, 5-HT2B) it was 1%; on Opiate μ (30 µM, Opiate μ), −6%. The “% Inhibition” value was 3% at 5-HT1B (30 µM, 5-HT1B); 4% at Endothelin ETA (30 µM, Endothelin ETA); −5% at 5-HT3 (30 µM, 5-HT3); 3% at Opiate κ (30 µM, Opiate κ); −11% on Histamine H1 (30 µM); 11% on Opiate δ1 (30 µM, Opiate δ1). For the same molecule, the “% Inhibition” value is given as 12% in assay [1] (30 µM, Cholecystokinin CCK1 (CCKA)); 2% on Adrenergic β2 (30 µM, Adrenergic β2); −9% on Cannabinoid CB1 (30 µM, Cannabinoid CB1). Further, the inhibition at 30 µM at Dopamine D2L stood at 16%.

For `COc1cc(/C=C/C(=O)O[C@H]2C[C@@](O)(C(=O)O)C[C@H](O)[C@@H]2O)ccc1O` [5-FQA, 5-O-feruloylquinic acid], the inhibition at 30 µM at Dopamine D1 (setting [2]) was 22%; on Adrenergic β1 (setting [3]) it was -4%; on Muscarinic M3, 2%; at Adrenergic α1A (setting [4]) it was 10%; on 5-HT2B (setting [5]), -5%; at Opiate μ (setting [6]) it was 5%. The inhibition at 30 µM was -10% at 5-HT1B (setting [7]); -8% on Dopamine D2L (setting [8]); 1% on Endothelin ETA (setting [9]); -3% at 5-HT3 (setting [10]); -7% at Opiate κ (setting [11]); -22% at Histamine H1. The inhibition at 30 µM is 2% on Opiate δ1 (setting [12]), 7% in [1] (setting [13]), 6% on Adrenergic β2 (setting [14]) and -6% at Cannabinoid CB1 (setting [15]).

Regarding `O=C(/C=C/c1ccc(O)c(O)c1)O[C@H]1C[C@@](O)(C(=O)O)C[C@H](O)[C@@H]1O` [5-CQA, 5-O-caffeoylquinic acid], the inhibition at 30 µM at Dopamine D1 (setting [2]) was 7%; on Adrenergic β1 (setting [3]), -1%; on Muscarinic M3, 5%; on Adrenergic α1A (setting [4]), 14%; at 5-HT2B (setting [5]), -16%; on Opiate μ (setting [6]), 8%. Moreover, the inhibition at 30 µM at 5-HT1B (setting [7]) is -1%; on Dopamine D2L (setting [8]), 7%; at Endothelin ETA (setting [9]), 3%; at 5-HT3 (setting [10]), -9%; at Opiate κ (setting [11]), -3%; on Histamine H1, -12%. Further, the inhibition at 30 µM at Opiate δ1 (setting [12]) was 5%; in assay [1] (setting [13]) it was 10%; on Adrenergic β2 (setting [14]) it was 1%; at Cannabinoid CB1 (setting [15]), -6%.
